Results reported in US20220016272A1, “COMPOSITIONS, METHODS AND KITS FOR DIAGNOSING AND TREATING CD206 EXPRESSING CELL-RELATED DISORDERS” (Cardinal Health 414, LLC, priority 2013, published 2022).

What was measured:
[1] = target: mannose receptor protein CD206 (Homo sapiens, UniProt P22897)
[2] = staging breast cancer, melanoma or SCC; cited from earlier work
[3] = system: Kaposi's sarcoma lesion(s); assay: SPECT and SPECT/CT imaging of primary cutaneous Kaposi's sarcoma; format: in vivo, human; conditions: 50 μg tilmanocept, 2.0 mCi 99mTc, subcutaneous; example in present tense
Protocol: The following illustrates yet another example of the evaluation of Primary Cutaneous Kaposi's Sarcoma (KS) by SPECT and SPECT/CT Imaging using Lymphoseek® (also known as technetium 99mTc-tilmanocept injection) a radiopharmaceutical that binds to mannose binding receptors (CD206) that reside on the surfaces of dendritic cells and macrophages.
The total volume of 99mTc-tilmanocept injection is 0.3 to 0.5 mL.
The patient has a marker lesion (>1 cm in diameter) with a confirmed diagnosis of KS (CD206-expressing cutaneous KS) via punch biopsy. The location of the marker KS lesion is on the extremities: from the shoulder to the metacarpal region or from the groin to the metatarsal region.
The dose is administered by a syringe with a ⅝ inch, 25- or 27-gauge, fixed needle, or other syringe/needle combinations that are acceptable for subcutaneous injections. The injection is made 1.5±0.25 cm distal from the marker lesion, 4-8 cm distal to the marker lesion, or 4-8 cm proximal to the marker lesion.
The patient undergoes a regional dynamic SPECT scan immediately post-injection for a duration of 30 minutes. After the initial scan, the patient undergoes whole body SPECT/CT imaging at 1 hour and whole body SPECT imaging at 4-6 hours post injection. The patient is permitted to leave the imaging center after the 4-6 hour SPECT scan. […]

Sequence of mannose receptor protein CD206 (P22897 19-1456): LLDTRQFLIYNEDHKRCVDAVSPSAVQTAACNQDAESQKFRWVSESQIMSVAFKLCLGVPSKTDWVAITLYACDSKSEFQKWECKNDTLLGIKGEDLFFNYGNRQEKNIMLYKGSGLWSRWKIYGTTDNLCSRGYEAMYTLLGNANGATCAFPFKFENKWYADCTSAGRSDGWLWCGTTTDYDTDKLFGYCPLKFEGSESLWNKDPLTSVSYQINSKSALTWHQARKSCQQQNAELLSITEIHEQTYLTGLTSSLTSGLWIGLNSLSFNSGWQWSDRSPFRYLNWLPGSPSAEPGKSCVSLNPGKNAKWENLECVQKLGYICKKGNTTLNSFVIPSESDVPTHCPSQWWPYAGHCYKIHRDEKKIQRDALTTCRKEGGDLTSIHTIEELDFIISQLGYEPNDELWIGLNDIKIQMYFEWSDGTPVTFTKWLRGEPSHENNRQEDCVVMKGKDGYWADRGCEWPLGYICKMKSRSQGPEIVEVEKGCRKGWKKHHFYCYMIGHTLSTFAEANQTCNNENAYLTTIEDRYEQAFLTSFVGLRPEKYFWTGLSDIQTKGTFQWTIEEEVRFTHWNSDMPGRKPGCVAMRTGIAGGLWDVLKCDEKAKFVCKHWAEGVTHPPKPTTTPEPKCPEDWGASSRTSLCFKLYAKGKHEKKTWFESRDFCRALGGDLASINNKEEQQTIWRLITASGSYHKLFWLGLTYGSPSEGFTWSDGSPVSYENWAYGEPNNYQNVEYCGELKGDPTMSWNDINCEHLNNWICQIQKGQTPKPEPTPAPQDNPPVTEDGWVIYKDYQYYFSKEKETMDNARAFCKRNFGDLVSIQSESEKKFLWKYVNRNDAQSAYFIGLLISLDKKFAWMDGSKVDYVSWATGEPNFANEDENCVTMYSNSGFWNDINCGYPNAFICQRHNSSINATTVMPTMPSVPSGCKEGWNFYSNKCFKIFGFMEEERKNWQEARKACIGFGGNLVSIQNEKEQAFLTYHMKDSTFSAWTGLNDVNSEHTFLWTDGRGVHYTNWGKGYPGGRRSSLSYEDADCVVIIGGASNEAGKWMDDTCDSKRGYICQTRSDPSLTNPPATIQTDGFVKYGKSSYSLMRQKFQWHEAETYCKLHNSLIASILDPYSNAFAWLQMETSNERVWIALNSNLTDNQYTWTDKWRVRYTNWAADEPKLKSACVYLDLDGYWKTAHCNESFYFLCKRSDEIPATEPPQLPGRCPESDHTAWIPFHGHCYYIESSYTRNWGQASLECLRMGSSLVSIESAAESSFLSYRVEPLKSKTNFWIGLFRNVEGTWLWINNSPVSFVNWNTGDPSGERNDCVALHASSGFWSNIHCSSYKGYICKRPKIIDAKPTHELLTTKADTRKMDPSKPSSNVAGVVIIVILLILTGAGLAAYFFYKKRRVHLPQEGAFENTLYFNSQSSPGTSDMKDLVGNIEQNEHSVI

Substance: dextran 3-[(2-aminoethyl)thio]propyl 17-carboxy-10,13,16-tris (carboxymethyl)-8-oxo-4-thia-7,10,13,16-tetraazaheptadec-1-yl 3-[[2-[[1-imino-2-(D-mannopyranosylthio) ethyl]aminolethyllthiolpropyl ether complexes [tilmanocept]
- intracellular fate after uptake into macrophage [1]: persists in stable non-digesting vesicles
- receptor specificity ([1]; administered to mammals or contacted with CD206 expressing cells ex vivo): bind exclusively to the mannose receptor protein CD206

Substance: technetium Tc 99m, dextran 3-[(2-aminoethyl)thio]propyl 17-carboxy-10,13,16-tris(carboxymethyl)-8-oxo-4-thia-7,10,13,16-tetraaz aheptadec-1-yl 3-[[2-[[1-imino-2-(D-mannopyranosylthio) ethyl]amino]ethyl]thio]propyl ether complexes [Lymphoseek]
- injection site clearance [2]: rapid clearance from an injection site
- uptake by distal or second-echelon lymph nodes [2]: low uptake by distal or second-echelon lymph nodes
- uptake by the sentinel lymph node(s) [2]: rapid and sustained uptake by the sentinel lymph node(s)
- detection of KS lesions by SPECT and SPECT/CT [3]: aids in the detection of Kaposi's sarcoma lesion(s)
